These are literature values, as cited in US11291812B2, “Sinus delivery of sustained release therapeutics” (Intersect ENT, Inc., priority 2003, dated 2022).

The series relates to sinusitis. The settings on record: ampicillin delivered from a poly(lactic-co-glycolic)acid (PLGA) film placed in rabbit maxillary sinus.

With `CC1(C)S[C@@H]2[C@H](NC(=O)[C@H](N)c3ccccc3)C(=O)N2[C@H]1C(=O)O` [ampicillin], the “clinical signs of sinusitis” value is “improved”.
